Measured values reported in patent US20040091479A1, “T-cell epitope of the papillomavirus l1 and e7 protein and use thereof in diagnostics and therapy” (priority 2000, published 2004).

Tests used:
[1] = test system: CVLP-stimulated CD8-positive T cells; assay: Restimulating HPV16 CVLP-stimulated T cells with P33-presenting BLCL (example 11); assay type: cell-based, human
Description: (§1) In analogy with example 6, human T cells derived from a non-HLA-typed blood donor were stimulated with HPV16L1ΔC*E71-55 CVLPs and harvested.
The T cells were then restimulated, at 37° C. and in 100 μl of medium, with 1 μg of peptide P33/ml and 10^5 antigen-presenting cells (donor-identical BLCL) in the presence of 10 IU of IL2/ml. Cells which were only incubated with buffer served as the negative control while cells which were incubated with HPV16 L1 peptide pool served as the positive control.
(§2) 1 μl of monensin was added after an hour. The cells were then incubated at 37° C. for a further 5 hours. After that, the cells were fixed and permeabilized and stained with α-human CD8/APC, with α-human CD4/PerCP and with α-human IFNγ/FITC. The labeling of the cells was examined in a FACScan Calibur and the results of the measurements were analyzed using Cellquest software.

P33-loaded RMA cells = assay: 51Cr release: lysing P33-loaded RMA cells; assay type: cell-based, C57BL/6 mouse
Description: RMA cells were incubated at 37° C. for one hour with ^51Cr, washed three times with medium and divided into 2 aliquots. 10 μg of the P33 peptide/ml were added to one aliquot of the cells while the other aliquot served as the negative control in the absence of the peptide. In each case 2000 of the cells (=target cells) were then added to 40.000 T cells (=effector cells) in a total volume of 150 μl. The T cells had previously been stimulated for 5 weeks with a mixture composed of 43 peptides (peptides 1-43, in each case 1 μg/ml).
Assay mixtures for spontaneous and maximal lysis of the cells were set up in parallel. Target cells which were incubated with culture medium were used for the spontaneous lysis. For the maximal lysis, target cells were lysed by adding 0.5% Triton X100.
The assay mixtures were incubated at 37° C. for 5 h. 50 μl volumes of the supernatants from the assay mixtures were added to Luma plates and dried overnight at room temperature. On the following morning, the quantity of radioactive ^51Cr (counts) was determined using a Canberra-Packerd B Plate Counter and related to the maximally lysed cells in the Triton assay mixture. The % specific lysis was then determined using the formula:
x=100·(counts−spontaneous counts)/(maximal counts−spontaneous counts).

[2] = test system: CVLP-stimulated CD8-positive T cells; assay: Restimulating HPV16 CVLP-stimulated T cells with BLCL presenting HPV16 peptide pools (example 10); assay type: cell-based, human; details: peptide common to two reactive HPV16 pools
Description: as §1
(§3) The T cells were then restimulated, at 37° C. and in 100 μl of medium, with the peptide pools from example 7 and 10^5 antigen-presenting cells (donor-identical BLCL) in the presence of 10 IU of IL2/ml. Use was made, in this connection, of quantities of the peptide pools which was such that 1 μg/ml was added in the case of each individual peptide. Cells which were only incubated with buffer served as the negative control while cells which were incubated with HPV16 L1 peptide pool served as positive controls.
as §2

[3] = test system: autologous peptide-loaded BLCL; assay: Cytotoxicity test (chromium release assay) of HPV18 E786-94-specific T cells; assay type: cell-based, human; details: effector to target ratio of 30:1, FIG. 17 bottom
Description: The predicted peptides were synthesized using standard methods (F moc method). […] For this, 1×10^5 PBMC derived from healthy, HLA-A2-positive donors were sown, in 100 μl of medium (RPMI 1640, 10% heat-inactivated AB plasma), in each well of a 96-well plate. 20 μg of peptide/ml were added to the culture medium. The cells were incubated at 37° C. and restimulated once per week with irradiated peptide-loaded autologous PBMC. The stimulator PBMC were incubated for 4 hours in medium containing 20 μg of peptide/ml. After the irradiation, they were diluted down to 1×10^4/100 μl with medium and added to the peptide-stimulated PBMC. For this, half the medium was aspirated from each well and 100 μl of the stimulator PBMC suspension were added. 10 U of IL-2/ml and 10 U of IL-7/ml were added from the 3rd stimulation onwards. From the 5th stimulation onwards, restimulation was carried out in the same manner using peptide-loaded autologous B lymphoblast cell lines (BLCL).
The cytotoxicity of HPV18 E786-94-specific T cells was determined in a chromium release assay. Autologous BLCL were used as the target cells. In each case, 5×10^5 cells were taken up in 100 μl of medium (RPMI 1640, 10% FCS) and treated with 20 μl of ^51chromium (NEN). For loading the BLCL with peptide, 50 μg of the corresponding peptide were added/ml. After that, the cells were incubated at room temperature for 2 hours while being carefully resuspended every 20-30 min. The cells were then washed 3 times with 5 ml of medium. For the sedimenting, the cells were in each case centrifuged at 1500 rpm for 5 min and then carefully resuspended. […]
The assay samples were incubated for 4 hours at 37° C., 98% atmospheric humidity and 5% CO2. […] On the following day, 150 μl of Microscint 40 scintillation fluid (Canberra-Packard, Deieich) were added and the numbers of distintegrations per minute in the individual assay samples were measured in the scintillation counter (Topcount, Canberra-Packard, Dreieich).
The specific lysis was calculated using the following formula: […]

LKK cells = assay: 51Cr release: lysing HPV18 peptide-loaded LKK cells (example 17); assay type: cell-based, murine
Description: In analogy with example 4, RMA or LKK cells were radioactively labeled with ^51Cr and incubated with the peptides (Q43 and Q44 in the upper part of FIG. 16 and Q49 in the lower part of FIG. 16) which are plotted on the X axis. Cells without peptide served as negative controls. T cells which had previously been stimulated with the peptide pool were then added.
The lysis of the RMA cells or LKK cells by the T cells was measured by the release of the ^51Cr and calculated as described in example 4.

[4] = test system: T cell line generated with HeLa CD80/HLA-A2 transfectants (H7.1-A2); assay: IFN-γ ELISpot of H7.1-A2-specific T cell line against peptide-loaded autologous PBMC; assay type: cell-based, human; details: H7.1-A2-induced T cell line, FIG. 17 top
[5] = test system: CVLP-stimulated CD4-positive T cells; assay: Restimulating HPV18 CVLP-stimulated T cells with BLCL presenting pools or Q30 (example 15); assay type: cell-based, human
Description: In analogy with example 6, human T cells derived from a non-HLA-typed blood donor were stimulated, at 37° C., with HPV18L1ΔCDIE71-53DI CVLPs and HPV18L1ΔCDIE71-60DI CVLPs and harvested.
as §3, with “example 6” for “example 7”, “which were” for “which was”, “with the HPV18” for “with HPV16”, “L1 or E7” for “L1”, “positive controls (upper part of FIG. 14). In the case of the lower part of FIG. 14, the T cells were restimulated, at 37° C. and in 100 μl of medium, with peptide pools F and 4 and with 1 μg of peptide Q30/ml and 10^5 antigen-presenting cells (donor-identical BLCL) in the presence of 10 IU of IL2/ml.” for “positive controls.”
as §2, with “[…],” for “CD8/APC,”

human T cells = assay: Summary of examples 3 to 18: epitopes recognized by human T cells; assay type: cell-based; details: Table 4, HPV18 peptides, species human
[6] = test system: HPV18 L1 peptide pool-stimulated CD8-positive T cells; assay: Restimulating HPV18 L1 peptide-stimulated T cells with Q9-presenting BLCL (example 8); assay type: cell-based, human
Description: In analogy with example 3, human T cells (4×10^5) derived from an HLA A24-positive donor were stimulated for 3 weeks with the HPV18 L1 peptide pool, at 37° C., with the weekly addition of 1 μg of each individual peptide/ml and 10^5 antigen-presenting cells (irradiated PMBC), and harvested.
The cells were then restimulated, at 37° C. in 100 μl of medium, with 10 μg of the HPV18 L1 peptide Q9/ml and 10^5 antigen-presenting cells (donor-identical BLCL) in the presence of 10 IU of IL2/ml. Cells which were only incubated with buffer served as the negative control.
as §2, with “of monensin (300 μM) was added” for “of monensin was added”, “cells were then fixed and” for “cells were fixed and”

[7] = test system: CVLP-stimulated CD8-positive T cells; assay: Restimulating HPV16 CVLP-stimulated T cells with BLCL presenting HPV16 peptide pools (example 14); assay type: cell-based, human; details: peptide common to two reactive HPV16 pools; CD8/IFNγ
Description: as §1
The T cells were then restimulated, at 37° C. and in 100 μl of medium, with the peptide pools from example 7 and 10^5 antigen-presenting cells (donor-identical BLCL) in the presence of 10 IU of IL2/ml. Use was made, in this connection, of quantities of the peptide pools which were such that 1 μg/ml was added in the case of each individual peptide. Cells which were only incubated with buffer served as the negative control, while cells which were incubated with the HPV16 L1 or E7 peptide pool served as positive controls.
as §2

In the case of “TTYKNTNFKEYLRHGEEYDL [P33, HPV16 L1 353-372]”, the “proportion of CD8-positive T cells reactive on the basis of IFNγ expression” value ([1]; 1 μg P33/ml, donor-identical BLCL, versus negative control, FIG. 10) is reported as “markedly higher”, the “T cell epitope assignment” value ([1]; conclusion from FIG. 10) is reported as “contains a cytotoxic T cell epitope” and the “specific lysis of target cells (51Cr release)” value (P33-loaded RMA cells; 10 μg P33/ml, effector:target 20, T cells stimulated with peptides P1-P43, FIG. 2) is reported as “able to efficiently lyse”. For the same substance, the “T cell epitope assignment” value (P33-loaded RMA cells; conclusion from FIG. 2) was “H2b-restricted cytotoxic T cell epitope”.

“YLPPVPVSKVVSTDEYVART [P2, HPV16 L1 12-31]” was tested, and the “T cell epitope assignment” value [2] was “contain a cytotoxic T cell epitope”.

In the case of “HPV18 E77-15: control peptide; HPV18 E77-15 epitope described by Rudolf MP et al. (2001) (TLQDIVLHL; UniProt P06788 7-15, looked up, fragment)”, the specific lysis [3] is reported as “No specific lysis”.

GLQYRVFRIHLPDPNKFGFP [P7] was tested, and the “T cell epitope assignment” value [2] was “contain a cytotoxic T cell epitope”.

In the case of “PQRHTMLCMCCKCEARIKLV [Q49, HPV18 E7 56-75]”, the “T cell epitope assignment” value (LKK cells; conclusion from FIG. 16 lower part) is reported as “H2k-restricted cytotoxic T cell epitope” and the “specific lysis of target cells (51Cr release)” value (LKK cells; peptide-loaded LKK cells, effector:target 20, FIG. 16 lower part) is reported as “able to efficiently lyse”.

With “HPV16 E728-36: control peptide in the ELISpot analysis (LNDSSEEED; UniProt P03129 28-36, looked up, fragment) [reference compound]” the “IFN-γ ELISpot reaction” value [4] was “did not induce any IFN-γ secretion”.

In the case of “NNGVCWHNQLFVTVVDTTRS [Q30, HPV18 L1 320-339]”, the “T cell epitope assignment (TH1)” value ([5]; peptide common to pools F and 4) is reported as “contains a TH1 epitope”, the “proportion of reactive CD4-positive and IFNγ-positive T cells, confirmation experiment” value ([5]; pools F or 4 or 1 μg Q30/ml compared with each other, FIG. 14) is reported as “comparable” and the Epitope type (human T cells) is reported as “TH1”.

For “IYNPETQRL [HPV18 L1 90-98, contained in peptide Q9]”, the “T cell epitope assignment” value ([6]; 9mer within Q9, deduced from Q9 result and HLA A24 prediction) was “HLA A24-restricted cytotoxic T cell epitope”.

“VGHPYFPIKKPNNNKILVPK [P5, HPV16 L1 45-64]” was tested, and the “T cell epitope assignment” value [7] was “contain a cytotoxic T cell epitope” and the “T cell epitope assignment” value [2] was “contain a cytotoxic T cell epitope”.

In the case of “SIYNPETQRLVWACAGVEIG [Q9, HPV18 L1 89-108]”, the “proportion of CD8-positive T cells reactive on the basis of IFNγ expression” value ([6]; 10 μg Q9/ml, donor-identical BLCL, HLA A24-positive donor, FIG. 7) is reported as “brought about a restimulation” and the “T cell epitope assignment” value ([6]; conclusion from FIG. 7) is reported as “contains an HLA A24-restricted cytotoxic T cell epitope”.

In the case of “HPV16 E628-36: control peptide in the chromium release assay (TTIHDIILE; UniProt P03126 28-36, looked up, fragment)”, the specific lysis [3] is reported as “No specific lysis”.
